For the assay, the system named is Diabetic Peripheral Neuropathy in a Mouse Induced by Streptozotocin. As to the kind of experiment: Von Frey test (0.16 g filament), diabetic peripheral neuropathy induced by streptozotocin. It is filed as in vivo, C57BL/6J mice. As to conditions: time course. Here is the method:
On Day 8 of acclimation, the mice in the group receiving streptozotocin and the group receiving streptozotocin+1 mg/kg xylitol were administered with streptozotocin at a dose of 200 mg/kg. A massive dose of streptozotocin destroys pancreatic cells in the mice. As a result, insulin is no longer secreted, and thus, diabetes can be developed in the mice. This day was designated as the first day of the administration (Day 0). Note that streptozotocin was administered only on the first day of administration. […]
Six to seven-week-old male C57BL/6J mice were used for the tests as with Example 7. All the mice were acclimated for seven days after arrival. Then, the mice were grouped into the following four groups: a control group, a group receiving streptozotocin, a group receiving 1 mg/kg xylitol, and a group receiving streptozotocin+1 mg/kg xylitol. Each group consisted of nine mice.
The mice in the group receiving 1 mg/kg xylitol were orally administered with xylitol at a dose of 1 mg/kg daily from Day 0. The mice in the group receiving streptozotocin+1 mg/kg xylitol were orally administered with xylitol at a dose of 1 mg/kg daily from Day 21 of administration.
The mice in the four groups described in (1) of the present example (Example 8) were placed in a cage, and the avoidance response frequency (score) was measured by pressing a filament with a bending force of 0.16 g against the back of the hind paw. […]
On Day 8 of acclimation, the mice in the group receiving streptozotocin and the group receiving streptozotocin+5 mg/kg D-threitol were administered with streptozotocin at a dose of 200 mg/kg. A massive dose of streptozotocin destroys pancreatic cells in the mice. As a result, insulin is no longer secreted, and thus, diabetes can be developed in the mice. This day was designated as the first day of the administration (Day 0). Note that streptozotocin was administered only on the first day of administration.
The mice in the group receiving 5 mg/kg D-threitol and the group receiving streptozotocin+5 mg/kg D-threitol were orally administered with D-threitol at a dose of 5 mg/kg daily from Day 0. […]
The mice in the group receiving 5 mg/kg D-threitol were orally administered with D-threitol at a dose of 5 mg/kg daily from Day 0. […]
The mice in the four groups described in (1) of the present example (Example 10) were placed in a cage, and the avoidance response frequency (score) was measured by pressing a filament with a bending force of 0.16 g against the back of the hind paw. […]
The mice in the four groups described in (1) of the present example (Example 11) were placed in a cage, and the avoidance response frequency (score) was measured by pressing a filament with a bending force of 0.16 g against the back of the hind paw. […]

Setting [1] is: streptozotocin 200 mg/kg + 5 mg/kg orally daily from Day 21 (therapy).

The structures appear in SMILES notation.

Regarding `OC[C@@H](O)[C@H](O)CO` [D-threitol], the avoidance response score entry under setting [1] is on record as “reduced from Day 24 onwards”. For `OC[C@H](O)[C@H](O)[C@H](O)[C@@H](O)CO` [L-talitol], the avoidance response score result under setting [1] is “reduced from Day 21 onwards”. Regarding `OC[C@@H](O)[C@H](O)[C@@H](O)CO` [xylitol], the avoidance response score result (streptozotocin 200 mg/kg + 1 mg/kg orally daily from Day 21 (therapy)) is given as “reduced from Day 21 onwards”.

Source of the values: US20240099989A1, “AGENT FOR PREVENTING OR IMPROVING PERIPHERAL NEUROPATHY” (KINKI UNIVERSITY, priority 2021, published 2024).
